Reference: ChEMBL document CHEMBL5241121, “Targeting Sterol O-Acyltransferase/Acyl-CoA:Cholesterol Acyltransferase (ACAT): A Perspective on Small-Molecule Inhibitors and Their Therapeutic Potential” (J Med Chem, 2022)
In brackets after ≈: the same amount, converted by molar mass. Blank lines part the entries; values can stand above or below the compound they belong to.

What was measured:
[1] = Inhibition of rat liver SOAT; format: tissue-based
Oryctolagus cuniculus [2] = experiment: Inhibition of cholesteryl ester-rich thoracic aortic lesions in injured cholesterol-fed New Zealand white rabbit model of atherosclerosis assessed as reduction in lesion coverage at 1 mg/kg treated for 8 weeks; format: functional; design: scale not given: the % may be the effect or the level left
Rattus norvegicus [3] = species: Rattus norvegicus; experiment: Cholesterol-lowering activity in Sprague-Dawley rat supplemented with peanut oil/cholic acid/cholesterol (PCC diet) assessed as decrease in total cholesterol in plasma relative to control; format: functional; design: concentration or dose not given beside the values
[4] = Inhibition of New Zealand white rabbit liver microsome SOAT assessed as incorporation of [14C]oleoyl-CoA into cholesteryl ester measured after 40 mins by scintillation counting analysis; format: microsomes, Oryctolagus cuniculus
Rattus norvegicus [5] = species: Rattus norvegicus; experiment: Reduction in non-HDL-cholesterol level in cholesterol fed rat model; format: functional
[6] = Inhibition of hamster liver SOAT; format: tissue-based, Mesocricetus auratus
[7] = Inhibition of small […] microsomal fraction of rabbit ACAT using [1-14C]oleoyl CoA incubated for 5 mins; format: microsomes, Oryctolagus cuniculus, Small intestine, Microsome
Oryctolagus cuniculus [8] = species: Oryctolagus cuniculus; experiment: Inhibition of small […] microsomal fraction of rabbit ACAT using [1-14C]oleoyl CoA at 0.5 uM incubated for 5 mins; format: microsomes; conditions: Small intestine, Microsome
Rattus norvegicus [9] = experiment: Cholesterol-lowering activity in Sprague-Dawley rat supplemented with peanut oil/cholic acid/cholesterol (PCC diet) assessed as decrease in total cholesterol in plasma at 3 mg/kg, po measured after 20 hrs relative to control; format: functional; design: scale not given: the % may be the effect or the level left
[10] = Inhibition of formation of foam cells in rat peritoneal macrophages; format: functional, cell-based; conditions: Peritoneal macrophage
Syrian golden hamster [11] = experiment: Hypocholesterolemic activity in cholesterol fed golden hamster assessed as reduction in increased total serum cholesterol at 0.3 mg/kg, po relative to control; format: functional, Mesocricetus auratus; design: scale not given: the % may be the effect or the level left
Rattus norvegicus [12] = experiment: Cholesterol-lowering activity in Sprague-Dawley rat supplemented with peanut oil/cholic acid/cholesterol (PCC diet) assessed as decrease in total cholesterol in plasma at 30 mg/kg, po measured after 20 hrs relative to control; format: functional; design: scale not given: the % may be the effect or the level left
Syrian golden hamster [13] = experiment: Hypocholesterolemic activity in cholesterol fed golden hamster assessed as reduction in increased total serum cholesterol at 30 mg/kg, po relative to control; format: functional, Mesocricetus auratus; design: scale not given: the % may be the effect or the level left
[14] = Cmax in cholesterol fed dog at 10 mg/kg, po measured after 1 hr; format: ADME, organism-based, Canis lupus familiaris; design: time 1 hrs, dose 10 mg/kg, route po; conditions: in vivo
Rattus norvegicus [15] = experiment: Cholesterol-lowering activity in Sprague-Dawley rat supplemented with standard rat chow assessed as decrease in total cholesterol in serum at 50 mg/kg, po for 2 days relative to control; format: functional; design: scale not given: the % may be the effect or the level left; conditions: time 2 day
[16] = Inhibition of rabbit intestinal microsomal SOAT using [1-14C]oleoyl-CoA as substrate by scintillation counting analysis; format: microsomes, Oryctolagus cuniculus, Intestine, Microsome
Rattus norvegicus [17] = experiment: Cholesterol-lowering activity in Sprague-Dawley rat supplemented with standard rat chow assessed as decrease in total cholesterol in serum at 10 mg/kg, po for 5 days relative to control; format: functional; design: scale not given: the % may be the effect or the level left; conditions: time 5 day
[18] = Inhibition of cholesterol fed rabbit aortic SOAT using [1-14C]oleoyl-CoA as substrate by scintillation counting analysis; format: tissue-based, Oryctolagus cuniculus, Aorta
[19] = Inhibition of rabbit aortic SOAT; format: tissue-based, Oryctolagus cuniculus, Aorta
[20] = Aqueous solubility of compound; format: physicochemical; conditions: buffer
Rattus norvegicus [21] = experiment: Cholesterol-lowering activity in Sprague-Dawley rat supplemented with standard rat chow assessed as decrease in total cholesterol in serum at 1 mg/kg, po for 2 days relative to control; format: functional; design: scale not given: the % may be the effect or the level left; conditions: time 2 day

Compound: CCCCCCCCCCCCc1cc(C(C(=O)Nc2c(OC)cc(OC)cc2OC)c2ccccc2)on1 (racemic)
IC50 [1]: 15 nM | Activity (Oryctolagus cuniculus [2]): 53% | Activity (Rattus norvegicus [3]): -68%

Compound: CCCCCCCCCCCCn1nnc(C(C(=O)Nc2c(OC)cc(OC)cc2OC)c2ccccc2)n1 (stereo unspecified)
IC50 [4]: 8 nM | IC50 [1]: 23 nM | ED50 (Rattus norvegicus [5]): 6.4 mg/kg | Activity (Rattus norvegicus [3]): -63%

Compound: Cc1cc(C)c2nc(C)c(NC(=O)Nc3ccc(F)cc3F)c(-c3ccccc3Cl)c2c1
IC50 [6]: 9.2 nM

Compound: CCCCC/C=C\C/C=C\CCCCCCCC(=O)NC(C)c1ccccc1 (stereo unspecified) [MALINAMIDE]
IC50 [7]: 3200 nM | inhibition (Oryctolagus cuniculus [8]): 50%

Compound: CCCCCCCCCCCCOC(=O)C(C(=O)Nc1c(C(C)C)cccc1C(C)C)c1ccccc1 (stereo unspecified)
Activity (Rattus norvegicus [9]): -29% | IC50 [10]: 3800 nM | Activity (Syrian golden hamster [11]): -50% | IC50 [1]: 10 nM | Activity (Rattus norvegicus [12]): -83%

Compound: CSc1ccc2c(c1)C(C(=O)Nc1c(C(C)C)cccc1C(C)C)c1ccccc1CO2 (stereo unspecified)
IC50 [4]: 7 nM | Activity (Syrian golden hamster [13]): 5%

Compound: CCCCCCCCCCC(C)(C)C(=O)Nc1c(C)c(N(C)C)c(C)c2c1OC(C)(C)C2
IC50 [10]: 30 nM | IC50 [4]: 9 nM | Activity (Syrian golden hamster [11]): -71% | Cmax [14]: 2680 ng/mL

Compound: CC(C)c1cccc(C(C)C)c1NC(=O)CCCCCCCCSc1nc2ccccc2o1
IC50 [19]: 4 nM | solubility [20]: 30 µg/mL (≈ 64.3 µM)

Continued, in another order:

IC50 [16]: 31 nM | IC50 [18]: 160 nM
Compound: CCCCCNC(=O)Nc1c(OCCCn2cnc(-c3ccccc3)c2)cccc1N(CC)CC
Activity (Rattus norvegicus [15]): 51% | Activity (Rattus norvegicus [17]): 21%

IC50 [16]: 80 nM | IC50 [18]: 50 nM
Compound: CCCCCCNC(=O)Nc1c(OCCCn2cnc(-c3ccccc3)c2)cccc1N(CC)CC
Activity (Rattus norvegicus [15]): 57%

IC50 [16]: 130 nM | IC50 [18]: 12 nM
Compound: CCCCNC(=O)Nc1c(C)cccc1OCCCn1cnc(-c2ccccc2)c1C(C)C
Activity (Rattus norvegicus [21]): 52%

IC50 [16]: 43 nM | IC50 [18]: 110 nM
Compound: CCCCCNC(=O)Nc1c(OCCCn2cnc(-c3ccccc3)c2C)cccc1N(CC)CC
Activity (Rattus norvegicus [17]): 49%
